Test results reported in patent US20110178171A1, “COMPOUNDS FOR CANCER THERAPY” (China Medical University, priority 2010, published 2011).
Each block holds one compound with its values, some of them ahead of it.

What was measured:
[1] = system: oral cancer cell line OECM-1; assay: MTT growth inhibition assay, OECM-1; assay type: cell-based; conditions: OECM-1, oral squamous cell carcinoma
Experimental: (§1) The results were determined by three independent experiments.
(§2) Besides, the above assay was also conducted on gastric cancer cell line NCI-N87, liver cancer cell line HepG2 and J5, lung cancer cell line A549, and oral cancer cell line OECM-1.

LNCaP xenografts = assay: Antitumor activity in vivo, LNCaP xenograft; parameters: species or system mice; conditions: for Tumor growth volume (mm^3): 30 mg/kg s.c. days 0-4
Experimental: Xenograft mice as a model system to study cytotoxicity effect of isochaihulactone in vivo: the implantation of cancer cells (LNCaP) were carried out similarly to previous reports. Female congenital athymic BALB/c nude (nu/nu) mice were purchased from National Sciences Council (Taipei, Taiwan) and all procedures were performed in compliance with the standard operating procedures of the Laboratory Animal Center of China Medical University (Taichung, Taiwan). All experiments were carried out using 6-8-week old mice weighing 18-22 g. The animals were s.c. implanted with 1×10^7 cell sinto the back of mice. When the tumor reached 80-120 mm3 in volume, animals were divided randomly into control and test groups consisting of six mice per group (day 0). Daily s.c. administration of z-K8, dissolved in a vehicle of 20% Tween 80 in normal saline (v/v) was performed from days 0 to 4 far from the inoculated tumor sites (>1.5 cm). The control group was treated with vehicle only. The mice were weighed three times a week up to days 21-28 to monitor the effects and the same time the tumor volume was determined by measurement of the length (L) and width (W) of the tumor. The tumor volume at day n (TVn) was calculated as TV (mm3)=(L×W^2)/2. The relative tumor volume at day n (RTVn) versus day 0 was expressed according to the following formula: RTVn=TVn/TV0. Tumor regression (T/C(%)) in treated versus control mice was calculated using: T/C(%)=(mean RTV of treated group)/(mean RTV of control group)×100. Xenograft tumors as well as other vital organs of treated and control. The results are shown in Tables 6 and 7 and FIGS. 6 and 7.
(§3) Assays were carried out to examine the inhibition of human xenografts growth in vivo by isochaihulactone. Briefly, LNCaP tumor-bearing mice were administered s.c. with vehicle control, 30 mg/kg E-K8, and Z-K8 respectively on days 0-4 for 5 days. The volumes of the tumors were measured. […] Scale bars, […]. Data represent means W S.D. of tumor volume at each time
as §3, with “Z-K8. Again,” for “isochaihulactone. Briefly,”, “Z-K8 15” for “30”, “mg/kg” for “mg/kg E-K8, and Z-K8 respectively”, “time point.” for “time”

PC3 cells = assay: MTT growth inhibition assay, PC3; assay type: cell-based, human; conditions: PC3, androgen-independent prostate adenocarcinoma
Experimental: (§4) The LNCaP (androgen-sensitive), PC3 (androgen in-dependent), human prostate cancer and normal human fibroblast 3T3 were obtained from American Type Culture Collection (Manassas, Va.) were maintained with RPMI 1640 medium containing 10% FBS and […] each of penicillin and streptomycin at […] in a humidified atmosphere with 5% CO2.
(§5) The viability of the cells after treated with various chemicals was evaluated using MTT assay preformed in triplicate (Mosmann T. 1983. Rapid colorimetric assay for cellular growth and survival: application to proliferation and cytotoxicity assays”. Journal of immunological methods. 65 (1-2): 55-63). Briefly, the cancer cells (5×10^3) were incubated in 96-well plates containing […] of the culture medium. Cells were permitted to adhere for 12-18 h then washed with phosphate buffered saline (PBS). Solutions were always prepared fresh by dissolving 0.2% DMSO or K8 in culture medium and added to various kind of tumor. After 48 h of exposure, K8 containing medium was removed, washed with PBS and replaced by fresh medium. The cells in each well were then incubated in culture medium with […] MTT for 4 h. After the medium were removed, […] of DMSO and […] of glycine buffer (0.1 M glycine, 0.1 M NaCl, pH 10.5) were added to each well. Absorbance at 570 nm of the maximum was detected by a PowerWave X Microplate ELISA Reader (Bio-TeK Instruments, Winoski, Vt.). The absorbance for DMSO treated cells was considered as 100%. The results were determined by three independent experiments.
Cytotoxicities of Z-K8 (Isochaihulactone) on LNCaP (AR-dependent), and PC3 (AR-independent) tumor cell line were examined in the manner described above. […]

[2] = system: lung cancer cell line A549; assay: MTT growth inhibition assay, A549; assay type: cell-based, human; conditions: A549, lung adenocarcinoma
Experimental: as §1, §2

LNCaP cells [3] = assay: MTT growth inhibition assay, LNCaP; conditions: for IC50: LNCaP, androgen-dependent prostate adenocarcinoma
Experimental: as §4, §5
Cytotoxicity of K8 (Isochaihulactone) on LNCaP cells was examined in the manner described above. The cells were treated with KS (Isochaihulactone), its Z-form, or its E-form of different concentrations ranging from 2.5 to 20 μM for 24 h.
Cytotoxicities of Z-K8 (Isochaihulactone) on LNCaP (AR-dependent), and PC3 (AR-independent) tumor cell line were examined in the manner described above. The cells were treated with the Z- or E-form K8 (Isochaihulactone) of different concentrations ranging from 0.3125 to 5 μM for 24 h.

[4] = system: liver cancer cell line J5; assay: MTT growth inhibition assay, J5; assay type: cell-based; conditions: J5, hepatocarcinoma
Experimental: as §1, §2

[5] = system: liver cancer cell line HepG2; assay: MTT growth inhibition assay, HepG2; assay type: cell-based; conditions: HepG2, hepatocarcinoma
Experimental: as §1, §2

LNCaP cells [6] = assay: Cell cycle analysis by flow cytometry; assay type: cell-based, human; conditions: 20 nM
Experimental: The cell cycle was determined by flow cytometry with DNA staining to reveal the total amount of DNA. Approximately 5×10^5 of cells were incubated in various concentration of isochaihulactone for the indicated time. Cells were harvested by treating the cells with trypsin/EDTA. The cells were collected, washed with PBS, fixed with cold 70% ethanol overnight, and then stained with a solution containing […] PI, 10 mg/ml RNase A, and 0.1% Triton X-100 for 1 h in the dark. The cells will then pass through FACScan flow cytometer (equipped with a 488-nmargon laser) to measure the DNA content. The data was obtained and analyzed with CellQuest 3.0.1 (Becton Dickinson, Franklin Lakes, N.J.) and ModFitLT V2.0 software. The results are shown Table 4 and FIG. 4.
Assays were carried out to examine the effect of Z-K8 in inducing G2/M phase arrest and apoptosis in LNCaP cells. Briefly, the cells were treated with different concentrations of Z-K8 (ranging from 0.25 to 2 μM) for 24 h. The cell cycle analysis was done according to the method described above. As shown in FIG. 4 and Table 4, Z-K8 induced cell cycle G2/M arrest in LNCaP cells.

IC50 [1]: > 1000 nM
IC50 (PC3 cells): > 20 µM
IC50 [2]: > 100 µM
IC50 (LNCaP cells [3]): > 20 µM
SMILES: COc1cc(/C=C2/C(=O)OCC2Cc2ccc3c(c2)OCO3)cc(OC)c1OC (racemic) [E-K8]
Tumor growth volume (mm^3) (LNCaP xenografts; day 1 after administration): 0 mm^3
Tumor growth volume (mm^3) (LNCaP xenografts; day 4 after administration): 118.0 mm^3
Tumor growth volume (mm^3) (LNCaP xenografts; day 7 after administration): 137.1 mm^3
Tumor growth volume (mm^3) (LNCaP xenografts; day 10 after administration): 205.7 mm^3
Tumor growth volume (mm^3) (LNCaP xenografts; day 13 after administration): 313.7 mm^3
Tumor growth volume (mm^3) (LNCaP xenografts; day 16 after administration): 427.4 mm^3
Tumor growth volume (mm^3) (LNCaP xenografts; day 19 after administration): 504.7 mm^3
Tumor growth volume (mm^3) (LNCaP xenografts; day 22 after administration): 633.5 mm^3
Tumor growth volume (mm^3) (LNCaP xenografts; day 25 after administration): 658.6 mm^3
Tumor growth volume (mm^3) (LNCaP xenografts; day 28 after administration): 834.9 mm^3
Tumor growth volume (mm^3) (LNCaP xenografts; day 31 after administration): 894.9 mm^3
tumor growth inhibition, in words (LNCaP xenografts; LNCaP tumor-bearing mice, 30 mg/kg s.c. days 0-4 (FIG. 6)): tumor growth inhibition effect
Viability (%) (LNCaP cells [3]; 2.5 µM): 86.2%
Viability (%) (LNCaP cells [3]; 5 µM): 72.9%
Viability (%) (LNCaP cells [3]; 10 µM): 69.8%
Viability (%) (LNCaP cells [3]; 20 µM): 65.3%

IC50 (PC3 cells): > 100 µM
IC50 [2]: 18.5 µM
IC50 [4]: 21.5 µM
IC50 [5]: > 20 µM
IC50 (LNCaP cells [3]): 4.3 µM
SMILES: COc1cc(/C=C2\C(=O)OC[C@@H]2Cc2ccc3c(c2)OCO3)cc(OC)c1OC [K8, isochaihulactone]
Viability (%) (LNCaP cells [3]; 2.5 µM): 67.4%
Viability (%) (LNCaP cells [3]; 5 µM): 43.6%
Viability (%) (LNCaP cells [3]; 10 µM): 40.9%
Viability (%) (LNCaP cells [3]; 20 µM): 21.0%

SMILES: CC(=O)O[C@H]1C(=O)[C@@]2(C)[C@H]([C@H](OC(=O)c3ccccc3)[C@]3(O)C[C@H](OC(=O)[C@H](O)[C@@H](NC(=O)c4ccccc4)c4ccccc4)C(C)=C1C3(C)C)[C@]1(OC(C)=O)CO[C@@H]1C[C@@H]2O [toxal, reference compound]
Cells in phase (%) G0/G1 (LNCaP cells [6]): 16.40%
Cells in phase (%) G2/M (LNCaP cells [6]): 40.23%
Cells in phase (%) S (LNCaP cells [6]): 3.95%
Cells in phase (%) Sub-G1 (LNCaP cells [6]): 11.43%
